# Reference: patent publication US7709014B2, “Hydroxy-oligocarboxylic esters: effects on nerve and use for cutaneous and mucocutaneous organs or sites” (priority 2005, dated 2010)
# Counter-ions that a name gives are not always drawn.
# Legend:
# nerves of the lips = test: Topical application of ester ointment or cream on the lips of human subjects: sensual, sensational, plumping or numbing feelings; type: in vivo; details: for duration of the feelings of the lips / sensual, sensational or plumping feelings of the lips / time after application until the lips experienced the feelings: 10% in water-non-washable ointment, human; for feelings of the lips: cream or ointment containing 10%, topically applied to lips (general description)
# Source text: The mucocutaneous organs or sites include lips, mouth, gum, nostrils, nipples, vulva, vagina, penis and anus.
# Ethyl glycolate 10 g was mixed with 90 g ointment prepared from white petrolatum 50 parts, mineral oil 40 parts and white beeswax 10 parts. The composition thus prepared contained 10% ethyl glycolate in a hydrophobic ointment that was not washable with water (a water-non-washable ointment).
# A subject, topically applied the above 10% ethyl glycolate ointment on their lips.
# L-Ethyl lactate 10 g was mixed with 90 g ointment prepared from white petrolatum 50 parts, mineral oil 40 parts and white beeswax 10 parts. The composition thus prepared contained 10% L-ethyl lactate in water-non-washable ointment. A subject, topically applied the above 10% L-ethyl lactate ointment on their lips.
# DL-Diethyl malate 10 g was mixed with 90 g ointment prepared from white petrolatum 50 parts, mineral oil 40 parts and white beeswax 10 parts. The composition thus prepared contained 10% DL-diethyl malate in a water-non-washable ointment.
# A subject, topically applied the above 10% DL-diethyl malate ointment on their lips.
# D-Diethyl tartarate 10 g was mixed with 90 g ointment prepared from white petrolatum 50 parts, mineral oil 40 parts and white beeswax 10 parts. The composition thus prepared contained 10% D-diethyl tartarate in a water-non-washable ointment.
# A subject, topically applied the above 10% D-diethyl tartarate ointment on their lips.
# L-Diethyl tartarate 10 g was mixed with 90 g ointment prepared from white petrolatum 50 parts, mineral oil 40 parts and white beeswax 10 parts. The composition thus prepared contained 10% L-diethyl tartarate in a water-non-washable ointment. A subject, topically applied the above 10% L-diethyl tartarate ointment on their lips.
# Trimethyl citrate 10 g was mixed with 90 g ointment prepared from white petrolatum 50 parts, mineral oil 40 parts and white beeswax 10 parts. The composition thus prepared contained 10% trimethyl citrate in a water-non-washable ointment.
# A subject, topically applied the above 10% trimethyl citrate ointment on their lips.
# Lidocaine 5 g was dissolved in warm propylene glycol 20 ml, and the solution thus obtained was mixed with 75 g ointment prepared from white petrolatum 50 parts, mineral oil 40 parts and white beeswax 10 parts. The composition thus prepared contained 5% lidocaine in a water-non-washable ointment.
# A subject, topically applied the above 5% lidocaine ointment on their lips.
# Tripropyl citrate 10 g was mixed with 90 g ointment prepared from white petrolatum 50 parts, mineral oil 40 parts and white beeswax 10 parts. The composition thus prepared contained 10% tripropyl citrate in a water-non-washable ointment.
# A subject, topically applied the above 10% tripropyl citrate ointment on their lips.
# Tri-isopropyl citrate 10 g was mixed with 90 g ointment prepared from white petrolatum 50 parts, mineral oil 40 parts and white beeswax 10 parts. The composition thus prepared contained 10% tri-isopropyl citrate in a water-non-washable ointment.
# A subject, topically applied the above 10% tri-isopropyl citrate ointment on their lips.
# [1] = test system: mucocutaneous organs or sites; test: Topical application to mucocutaneous organs or sites: general findings on sensuous, sensational and mild anesthetic effects; type: in vivo, human; details: for sensuous or mild anesthetic effect: topical application, same conditions as the hydroxy-oligocarboxylic esters
# Source text: The present invention is based on the discovery that topical application of a hydroxy-oligocarboxylic ester, preferably a hydroxydicarboxylic ester or more preferably a hydroxytricarboxylic ester such as tripropyl citrate on topical application can produce sensuous, sensational and mild anesthetic effects on mucocutaneous organs or sites, such as lips, mouth, gum, nostrils, nipples, vulva, vagina, penis and anus. […] The sensuous and sensational effects produced by the hydroxy-oligocarboxylic ester, preferably a hydroxydicarboxylic ester or more preferably a hydroxytricarboxylic ester are quite different from the numbing effects induced by local anesthetics such as lidocaine and procaine. The sensuous, sensational and mild anesthetic effects produced by the hydroxy-oligocarboxylic ester according to the present invention generally last from a few minutes to a few hours. Such nerve-acting sensation or effect has many cosmetic, dental and dermatological applications. For example, a lipstick or lip balm comprising a hydroxy-oligocarboxylic ester, preferably a hydroxydicarboxylic ester or more preferably a hydroxytricarboxylic ester, can provide a sensuous or sensational feeling after topical application to lips of a human subject. Such sensuous action and certain anesthetic effects on nervous system produced by the hydroxy-oligocarboxylic ester can have beneficial applications such as to relieve itch or pain of lips, mouth, gum, nostrils, nipples, vulva, vagina, penis and anus, and for conditions associated with eczema, hemorrhoids, dry or aging-associated changes of the vulva and vagina.
# [2] = test system: itchy and eczematous skin (atopic eczema); test: Topical application on itching, eczematous skin of a human subject: relief of itch; type: in vivo; details: for effect on itch associated with eczema or psoriasis / time after topical application until the itch disappears: cream or ointment containing 10%, topically applied to eczematous or psoriatic lesions (general description)
# Protocol: A composition comprising a hydroxy-oligocarboxylic ester, preferably a hydroxydicarboxylic ester, and more preferably a hydroxytricarboxylic ester, can also be topically applied to mucocutaneous or skin lesions. For example, a cream or ointment containing 10% tripropyl citrate or tri-isopropyl citrate can be topically applied to eczematous or psoriatic lesions twice daily for 4 to 16 weeks.
# Tripropyl citrate 10 g and propylene glycol 20 ml were mixed with hydrophilic ointment or oil-in-water emulsion 70 g. The composition thus prepared contained 10% tripropyl citrate in water-soluble oil-in-water emulsion.
# A subject, having atopic eczema with severe itching skin, topically applied the above 10% tripropyl citrate cream on their right leg with itchy eczematous lesions. […]
# [3] = test system: itchy and eczematous skin (atopic eczema); test: as above; type: in vivo; details: 10% in water-non-washable ointment, itching skin of right lower leg, subject with atopic eczema
# [4] = 5% in water-non-washable ointment with propylene glycol, topically applied on lips, subject
# [5] = 10% cream (water-soluble oil-in-water emulsion with propylene glycol), itchy eczematous lesions of right leg, subject with atopic eczema
Structure (SMILES),duration of the feelings of the lips (nerves of the lips; topically applied on lips),"sensual, sensational or plumping feelings of the lips (nerves of the lips; topically applied on lips)",time after application until the lips experienced the feelings (nerves of the lips; topically applied on lips),other results
"CCOC(=O)CC(O)C(=O)OCC (racemic) [DL-diethyl malate, DL-Diethyl malate]",10 to 20 min,sensual and plumping feelings,one to two,–
"CCOC(=O)[C@@H](O)[C@H](O)C(=O)OCC [D-diethyl tartarate, D-Diethyl tartarate]",10 to 20 min,slight sensual and plumping feelings,one to two,–
"CCOC(=O)[C@H](O)[C@@H](O)C(=O)OCC [L-diethyl tartarate, L-Diethyl tartarate]",10 to 20 min,slight sensual and plumping feelings,one to two,–
"CCOC(=O)[C@H](C)O [L-ethyl lactate, L-Ethyl lactate, reference compound]",–,no sensual or sensational feelings during the next 30 minutes,–,–
"CCOC(=O)CO [ethyl glycolate, Ethyl glycolate, reference compound]",–,no sensual or sensational feelings during the next 30 minutes,–,sensuous or mild anesthetic effect [1]: does not produce a sensuous or mild anesthetic effect
CCOC(=O)C(C)O (stereo not shown) [ethyl lactate],–,–,–,sensuous or mild anesthetic effect [1]: does not produce a sensuous or mild anesthetic effect
"CCN(CC)CC(=O)Nc1c(C)cccc1C [lidocaine, Lidocaine, reference compound]",–,–,–,duration of the numbing effect (nerves of the lips; [4]): several; numbing effect on the lips (nerves of the lips; [4]): the lips felt numb; time after application until the lips felt numb (nerves of the lips; [4]): a few
"CC(C)OC(=O)CC(O)(CC(=O)OC(C)C)C(=O)OC(C)C [tri-isopropyl citrate, Tri-isopropyl citrate]",about an hour,sensual and sensational feelings,a few,effect on itch associated with eczema or psoriasis [2]: usually disappears; time after topical application until the itch disappears [2]: a few; feelings of the lips (nerves of the lips): sensual and sensational pleasure with very mild anesthetic effects
"O=C(CC(O)(CC(=O)OCc1ccccc1)C(=O)OCc1ccccc1)OCc1ccccc1 [tribenzyl citrate, Tribenzyl citrate]",–,slight sensual and sensational feelings,a few,–
"CCOC(=O)CC(O)(CC(=O)OCC)C(=O)OCC [triethyl citrate, Triethyl citrate]",20 to 30 min,sensual and plumping feelings,one to two,effect on itch [3]: the itch stopped; time after application until the itch stopped [3]: a few; time the skin remained free of itch [3]: 4 h; feelings of the lips (nerves of the lips): sensual and sensational pleasure with very mild anesthetic effects
"COC(=O)CC(O)(CC(=O)OC)C(=O)OC [trimethyl citrate, Trimethyl citrate]",–,very slight sensual and plumping feelings,one to two,–
"CCCOC(=O)CC(O)(CC(=O)OCCC)C(=O)OCCC [tripropyl citrate, Tripropyl citrate]",90 to 120 min,sensual and sensational feelings,a few,"sensuous and sensational effects compared with trimethyl citrate ([1]; strength and duration, compared with trimethyl citrate): much stronger and longer-lasting sensuous and sensational effects; effect on itch [2, 5]: the itch disappeared completely; time after application until the itch disappeared [2, 5]: a few; time the skin remained free of itch [2, 5]: 4 h; effect on itch associated with eczema or psoriasis [2]: usually disappears; time after topical application until the itch disappears [2]: a few; feelings of the lips (nerves of the lips): sensual and sensational pleasure with very mild anesthetic effects"
